Laboratory results taken from paper PMC3758303 (PLoS ONE, 2013).

What was measured:
[1] = test system: genome-length HCV-RNA (KAH5 strain of genotype 1b) replication in Li23-derived KAH5RL cells; experiment: KAH5RL RL assay; type: cell-based; conditions: Hepatitis C virus, Li23, HCV strain KAH5, 72 hrs
Description: RSc and D7 cells were derived from the cell lines HuH-7 and Li23, respectively, were cultured as described previously, [29]. HuH-7-derived OR6 [13], AH1R [30], and 1B-4R [Ikeda et al., submitted] cells harboring genome-length HCV-RNA and HuH-7-derived polyclonal sOR [31], and RSc-JRN/35B [Ikeda et al., submitted] cells harboring an HCV subgenomic replicon were cultured with medium in the presence of G418 (0.3 mg/ml; Geneticin, Invitrogen, Carlsbad, CA) as described previously. Li23-derived ORL8 [20], ORL11 [20], 1B-4RL [Ikeda et al., submitted], and KAH5RL [Ikeda et al., submitted] cells harboring genome-length HCV-RNA were maintained with medium in the presence of G418 (0.3 mg/ml) as described previously. Li23-derived polyclonal sORL8 and sORL11 cells harboring an HCV replicon, which were established by the transfection of ORN/3-5B/QR,KE,SR RNA into the cured OL8 and OL11 cells, respectively, were also cultured with medium in the presence of G418 (0.3 mg/ml) as described previously. Cured cells, from which the HCV-RNA had been eliminated by IFN treatment, were also maintained with medium in the absence of G418 as described previously. […] Therefore, when HCV-RNA is excluded from the cells or when its level is decreased, the cells are killed in the presence of G418. […]
(§1) The SI value of each reagent was determined by dividing the CC50 value by the EC50 value.

[2] = WST-1 cell proliferation assay, sORL8 cells; type: cell-based; conditions: human
Description: The WST-1 cell proliferation assay was performed as described previously. Briefly, The cells were plated onto 96-well plates (1×10^3 cells per well) in triplicate and then treated with each reagent at several concentrations for 72 hrs. After treatment, the cells were subjected to the WST-1 cell proliferation assay (Takara Bio, Otsu, Japan) according to the manufacturer’s protocol. This assay is based on the enzymatic cleavage of the tetrazolium salt WST-1 to formazan by cellular mitochondrial dehydrogenases present in viable cells. Therefore, there are […] the value of the WST-1 assay becomes zero. The experiments were performed at least in triplicate. From the assay results, the 50% cytotoxic concentration (CC50) of each reagent was determined.

[3] = test system: authentic 9.6 kb HCV-RNA replication in HCV-O/RLGE cells; experiment: Quantitative RT-PCR of authentic HCV-RNA in HCV-O/RLGE cells; type: cell-based; conditions: Hepatitis C virus, 72 hrs, real-time LightCycler PCR
Description: as §1
The RNAs from HCV-RNA replicating cell lines were prepared with an RNeasy extraction kit (Qiagen). The quantitative RT-PCR analysis for HCV-RNA was performed using a real-time LightCycler PCR (Roche Diagnostics, Basel, Switzerland) as described previously, [20].
The genome-length HCV-RNA used in the assay systems described above contains three non-natural elements: RL, neomycin phosphotransferase, and an internal ribosomal entry site of encephalomyocarditis virus. To exclude the possibility that the anti-HCV activity of N-89 or N-251 was due to the inhibition of these three exogenous elements, we examined the anti-HCV activities of N-89 and N-251 using the authentic 9.6 kb HCV-RNA-replicating HCV-O/RLGE cells, which were developed by the introduction of in vitro synthesized HCV-O/RLGE RNA (Fig. 2A) into OR6c cured cells.
Figure 2 Characterization of anti-HCV activities of N-89 and N-251. (A) Schematic gene organization of authentic HCV-RNA (HCV-O/RLGE). The positions of four adaptive mutations - Q1112R, P1115L, E1202G, and K1609E - are indicated by a black star. […] The relative value (%) calculated at each point, when the level in non-treated cells was assigned as 100%, is presented here. Data are expressed as the means±standard deviation of triplicate assays. […]

[4] = test system: HCV-JFH-1 strain (genotype 2a) in HuH-7-derived RSc cells; experiment: JFH-1 reporter assay system, RSc cells; type: cell-based, hepatitis C virus; conditions: RSc cells inoculated with JR/C5B/BX-2 supernatant, RL assay
Description: HCV infection was performed as described previously. RSc and D7 cells were inoculated with supernatant from RSc cells replicating JR/C5B/BX-2 [29].
Figure 2 Characterization of anti-HCV activities of N-89 and N-251. (A) Schematic gene organization of authentic HCV-RNA (HCV-O/RLGE). The positions of four adaptive mutations - Q1112R, P1115L, E1202G, and K1609E - are indicated by a black star. (B) N-89 and N-251 inhibited authentic HCV-RNA replication. The cells harboring HCV-O/RLGE RNA [19] were treated with N-89 (left panel) and N-251 (right panel) for 72 hrs, followed by real-time LightCycler PCR (black circles in the upper panel) and WST-1 assay (open triangles in the upper panel). The relative value (%) calculated at each point, when the level in non-treated cells was assigned as 100%, is presented here. Data are expressed as the means±standard deviation of triplicate assays. Western blot analysis (lower panels) was performed as described in Fig. 1B. […]
We next examined whether N-89 and N-251 worked in an HCV production system using HCV-JFH-1 strain (genotype 2a). […] To clarify whether anti-HCV activity depends on the difference of genotype or assay model, we evaluated the activities of N-89 and N-251 using RSc-JRN/35B [Ikeda et al., submitted] cells harboring a subgenomic HCV-JFH-1 replicon as an additional assay.

[5] = test system: HCV-RNA replication in ORL8 cells; experiment: Effect of VE on anti-HCV activity, ORL8 RL assay; type: cell-based, hepatitis C virus; conditions: 72 hrs
Description: After treatment, an RL assay of harvested ORL8 cell samples was performed. (B, D, and F) The ratio of RL activity in the presence of VE to the RL activity in the absence of VE. The above ratio was calculated from the data of (A, C, and E). […] (G) Western blot analysis was performed as described in Fig. 1B.
The ORL8 cells were treated with N-89 or IFN-α, and then RL assays were performed at 2 to 72 hrs after the treatment. The relative value (%) calculated at each time point, when the luciferase activity of non-treated cells at 24 hrs was assigned as 100%, is shown. Data are expressed as the means±standard deviation of triplicate assays. […] To evaluate this possibility, we examined the effect of VE on N-89 at the EC90 level in the ORL8 assay.

[6] = set-up: method as in Kim et al., unpublished data; conditions: ref Kim et al., unpublished data; cited from earlier work

| Structure (SMILES) | EC50 [1] | CC50 at 72 h [2] | EC50 [3] | anti-HCV activity for the HCV-JFH-1 strain [4] | VE 10μM(+) / VE 10μM(-) ratio of RL activity ([5]; reagent at expected EC90, Fig. 5D (control 2.3)) | blood concentration [6] | VE 10μM(+) / VE 10μM(-) ratio of RL activity ([5]; reagent at expected EC90, Fig. 5B (control 3.0)) |
| --- | --- | --- | --- | --- | --- | --- | --- |
| OCCCCCCC1COOC2(CCCCCCCCCCC2)OOC1 [N-251, 6-(1,2,6,7-tetraoxaspiro[7.11]nonadec-4-yl)hexan-1-ol] | 290 nM | 4100 nM | 1600 nM | did not show anti-HCV activity | 13 | approximately 1 µM | – |
| C1CCCCCC2(CCCCC1)OOCCCOO2 [N-89, 1,2,6,7-Tetraoxaspiro[7.11]nonadecane] | 190 nM | 1100 nM | 2000 nM | did not show anti-HCV activity | – | approximately 1 µM | 16 |
